Assay results from PubChem BioAssay (NCI).
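Interpolation was linear, between the two tested concentrations surrounding the appropriate level; five concentrations were tested over 48 hours in 96-well plates. TGI marks complete inhibition of growth.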

Tests used:
Test in all cases: NCI-60 cell line screen, 48 h
[1] = system: 786-0 renal
[2] = system: A498 renal
[3] = system: A549 NSCLC
[4] = system: ACHN renal
[5] = system: CAKI-1 renal
[6] = system: CCRF-CEM leukemia
[7] = system: COLO 205 colon
[8] = system: DU-145 prostate
[9] = system: EKVX NSCLC
[10] = system: HCC-2998 colon
[11] = system: HCT-116 colon
[12] = system: HCT-15 colon
[13] = system: HL-60(TB) leukemia
[14] = system: HOP-62 NSCLC
[15] = system: HOP-92 NSCLC
[16] = system: HS 578T breast
[17] = system: HT29 colon
[18] = system: IGROV1 ovarian
[19] = system: K-562 leukemia
[20] = system: KM12 colon
[21] = system: LOX IMVI melanoma
[22] = system: M14 melanoma
[23] = system: MALME-3M melanoma
[24] = system: MCF7 breast
[25] = system: MDA-MB-231 breast
[26] = system: MDA-MB-435
[27] = system: MDA-N
[28] = system: MOLT-4 leukemia
[29] = system: NCI-H226 lung
[30] = system: NCI-H23 lung
[31] = system: NCI-H460 lung
[32] = system: NCI-H522 lung
[33] = system: NCI/ADR-RES ovarian
[34] = system: OVCAR-3 ovarian
[35] = system: OVCAR-4 ovarian
[36] = system: OVCAR-5 ovarian
[37] = system: OVCAR-8 ovarian
[38] = system: PC-3 prostate
[39] = system: RPMI-8226 leukemia
[40] = system: SF-268 CNS
[41] = system: SF-295 CNS
[42] = system: SF-539 CNS
[43] = system: SK-MEL-2 melanoma
[44] = system: SK-MEL-28 melanoma
[45] = system: SK-MEL-5 melanoma
[46] = system: SK-OV-3 ovarian
[47] = system: SN12C renal
[48] = system: SNB-19 CNS
[49] = system: SNB-75 CNS
[50] = system: SW-620 colon
[51] = system: T-47D breast
[52] = system: TK-10 renal
[53] = system: U251 CNS
[54] = system: UACC-257 melanoma
[55] = system: UO-31 renal
[56] = system: RXF 393 renal
[57] = system: SR leukemia
[58] = system: UACC-62 melanoma

CC(C)(C)C(=O)C(CC(=O)c1ccccc1)C(=O)C(C)(C)C
TGI [1]: > 100 µM
TGI [2]: > 100 µM
TGI [3]: > 100 µM
TGI [4]: > 100 µM
TGI [5]: > 100 µM
TGI [6]: > 100 µM
TGI [7]: > 100 µM
TGI [8]: > 100 µM
TGI [9]: > 100 µM
TGI [10]: > 100 µM
TGI [11]: > 100 µM
TGI [12]: > 100 µM
TGI [13]: > 100 µM
TGI [14]: > 100 µM
TGI [15]: > 100 µM
TGI [16]: > 100 µM
TGI [17]: > 100 µM
TGI [18]: > 100 µM
TGI [19]: > 100 µM
TGI [20]: > 100 µM
TGI [21]: > 100 µM
TGI [22]: > 100 µM
TGI [23]: > 100 µM
TGI [24]: > 100 µM
TGI [25]: > 100 µM
TGI [26]: > 100 µM
TGI [27]: > 100 µM
TGI [28]: > 100 µM
TGI [29]: > 100 µM
TGI [30]: > 100 µM
TGI [31]: > 100 µM
TGI [32]: > 100 µM
TGI [33]: > 100 µM
TGI [34]: > 100 µM
TGI [35]: > 100 µM
TGI [36]: > 100 µM
TGI [37]: > 100 µM
TGI [38]: > 100 µM
TGI [39]: > 100 µM
TGI [40]: > 100 µM
TGI [41]: > 100 µM
TGI [42]: > 100 µM
TGI [43]: > 100 µM
TGI [44]: > 100 µM
TGI [45]: > 100 µM
TGI [46]: > 100 µM
TGI [47]: > 100 µM
TGI [48]: > 100 µM
TGI [49]: > 100 µM
TGI [50]: > 100 µM
TGI [51]: > 100 µM
TGI [52]: > 100 µM
TGI [53]: > 100 µM
TGI [54]: > 100 µM
TGI [55]: > 100 µM

Cc1cn(C2C=CC(COP(=O)(OCC3=CC(=O)c4ccccc4C3=O)N(C)CCCCCl)O2)c(=O)[nH]c1=O (stereo unspecified)
TGI [1]: 25.3 µM
TGI [3]: 2.97 µM
TGI [4]: 26.4 µM
TGI [5]: 25.9 µM
TGI [6]: 11.9 µM
TGI [7]: 10.9 µM
TGI [8]: 3.06 µM
TGI [10]: 4.42 µM
TGI [11]: 26.9 µM
TGI [12]: 20.9 µM
TGI [13]: 4.41 µM
TGI [14]: 23.9 µM
TGI [15]: 20.9 µM
TGI [16]: 18.6 µM
TGI [17]: 29.4 µM
TGI [18]: 22.4 µM
TGI [19]: 21.1 µM
TGI [20]: 28.7 µM
TGI [21]: 8.66 µM
TGI [22]: 2.84 µM
TGI [23]: 0.982 µM
TGI [24]: 20.5 µM
TGI [25]: 25.5 µM
TGI [26]: 3.35 µM
TGI [27]: 4.22 µM
TGI [28]: 0.769 µM
TGI [29]: 25 µM
TGI [30]: 6.49 µM
TGI [31]: 11.2 µM
TGI [32]: 29.4 µM
TGI [33]: 36.2 µM
TGI [34]: 19.1 µM
TGI [35]: 23.2 µM
TGI [36]: 27.1 µM
TGI [37]: 26.6 µM
TGI [38]: 24.5 µM
TGI [39]: 20.8 µM
TGI [56]: 15.8 µM
TGI [40]: 24.4 µM
TGI [41]: 11.3 µM
TGI [42]: 25.8 µM
TGI [43]: 27.2 µM
TGI [44]: 18.2 µM
TGI [45]: 2.28 µM
TGI [46]: 23 µM
TGI [47]: 23.9 µM
TGI [48]: 25.6 µM
TGI [49]: 11.9 µM
TGI [57]: 2.05 µM
TGI [50]: 29.3 µM
TGI [51]: 9.26 µM
TGI [52]: 36.5 µM
TGI [53]: 17.7 µM
TGI [54]: 13.9 µM
TGI [58]: 14.3 µM
TGI [55]: 25.4 µM
